Results on one compound are retold here after publication PMC6095874, “Discovery of cationic nonribosomal peptides as Gram-negative antibiotics through global genome mining” (Nature Communications, 2018).

The structures appear in SMILES notation. Converted amounts (≈) assume the structure as drawn. Where a SMILES comes first, the peptide text is derived from it. Bridges are numbered along the chain shown (N, C = ends). [ ]: non-standard residue; d: D form. The star is where a group is joined. ξ: configuration not given here. Hexanoyl(4ξ-Me) = CCC(C)CCC(=O)*; dOrn = NCCC[C@@H](N)C(=O)O; Orn = NCCC[C@H](N)C(=O)O

The subject of data set [1] is E. cloacae NRRL-B-425. In kind it is cell-based, Enterobacter cloacae. The following applies: NRRL-B-425, 24 h. How it is done:
(§1) MIC was determined by broth microdilution according to CLSI guidelines. The test medium for most species was Mueller–Hinton broth (MHB). Bacteria were grown overnight to early stationary phase and adjusted in MHB to 5.0 × 10^5 c.f.u. mL^−1 in the wells of 96-well microtiter plates (Falcon® 96-Well Flat-Bottom Microplate, Tissue Culture-Treated), mixed with varying concentrations of test compounds and incubated at 37 °C for 24 h. Cell growth was evaluated by measuring the optical density at 595 nm (Thermo Scientific Multiskan FC multiplate photometer) (Waltham, MA, USA), and the MIC was defined as the lowest compound concentration at which no bacterial growth was observed. MHBs containing 10% fetal bovine serum (Gibco), 21 mM MgCl, or 1.0 mg mL^−1 LPS (lipopolysaccharides from E. coli O55:B5, Sigma-Aldrich) was used to test their inhibitory effects.

Data set [2] is described as follows: Peptide binding to LPS by isothermal titration calorimetry. The following applies: 37 °C. On the set-up: species or system Escherichia coli. On the procedure: Microcalorimetric experiments of peptide binding to LPS were performed on an MCS isothermal titration calorimeter (Microcal, Northampton, MA) at 37 °C. LPS was prepared as a 50 µM aqueous suspension in 20 mM HEPES buffer (pH 7.0) by suspension, sonication, and temperature cycling between 5 and 70 °C. This suspension was stored at 4 °C overnight prior to use. Aliquots of 100 µM peptide solutions (brevicidine and polymyxin B) were prepared in the same buffer and all solutions were degassed prior to use by stirring under vacuum for 5 min at 37 °C. After thermal equilibration, 5 µL aliquots of the peptide solution were added every 3 min into the lipid-containing cell at 37 °C with constant stirring. The change in heat during the titration steps was registered in real time and raw data were processed using the Origin® 7 software provided with the instrument. In control experiments, the corresponding peptide solution (or LPS solution) was injected into the buffer without LPS (or without peptide).
(In general: ITC needs no label: the signal is the heat of the interaction.)

For data set [3], the system named is E. coli ATCC 25922. Description: Resistance acquisition during serial passaging. In kind it is cell-based, Escherichia coli. The following applies: subinhibitory concentrations, 30-day period, MHB, 37 °C, quadruplicate. How it is done: E. coli ATCC 25922 was inoculated into MHB overnight at 37 °C with continuous shaking. Cells were diluted 10,000 times in MHB to about 1 × 10^6 c.f.u. mL^−1. Ten µL aliquots were drawn to a 96-well plate containing 90 µL of serially diluted brevicidine, laterocidine, and ciprofloxacin, at final concentrations of 0.5×, 1×, 1.5×, 2×, and 4× MIC. […] Plates with bacteria were incubated at 37 °C without shaking. […] This process was repeated for 30 days, and the final MIC was confirmed by the same antibacterial assay as the one described above. The experiment was performed in quadruplicate, and on each day, the sample that developed the highest resistance was measured to plot the curve. For single-step resistance, E. coli ATCC 25922 cells at 10^8 c.f.u. were plated onto Mueller–Hinton agar containing 4× MIC of brevicidine.

Data set [4] concerns E. coli. The data set can be described thus: Lysis assay. In kind it is cell-based, Escherichia coli. The following applies: ten times the MIC, culture OD600 = 1.0, 24 h. How it is done: An overnight culture of E. coli TOP10 cells was diluted 1:10,000 in MHB and incubated at 37 °C with agitation at 180 rpm for 2 h (early exponential). The bacteria were then challenged with brevicidine (20 μg mL^−1), laterocidine (20 μg mL^−1), or polymyxin B (10 μg mL^−1) at ten times the MIC at room temperature without shaking. An untreated sample of cells was used as a negative control. At intervals, 10 μL aliquots were removed, centrifuged at 10,000 × g for 1 min and resuspended in 1.0 mL of sterile PBS. Tenfold serially diluted suspensions were plated on MHB agar plates and incubated at 37 °C overnight. Colonies were counted and the number of c.f.u. per mL was calculated. For analysis of lysis, 300 μL of culture (OD600 = 1.0) were treated with antibiotics at ten times the MIC for 24 h. Experiments were performed in triplicate.

The subject of data set [5] is Saccharomyces cerevisiae. In kind it is cell-based. Conditions: 24 h.
In data set [6] the test system is rabbit erythrocytes. The following applies: concentrations up to 128 μg mL^−1, 2% (v/v) rabbit erythrocytes in PBS, 1 h, 37 °C, absorbance 570 nm, vs 10% Triton X-100.
Protocol: Hemolytic activity was determined with red blood cells freshly isolated from healthy rabbits. […] The cells were incubated for 1 h at 37 °C and centrifuged for 5 min at 10,000 × g. The supernatant was transferred to a 96-well plate and the absorbance was measured at a wavelength of 570 nm with a Thermo Scientific Multiskan FC multiplate photometer. The absorbance relative to the positive control, which was treated with 10% Triton X-100, was defined as the percentage of hemolysis.
Data set [7] relates to E. coli ATCC 25922. The data set can be described thus: Neutropenic mouse thigh infection model. It is filed as in vivo. On the procedure: Given the low risk of resistance and the attractive mode of action of 1–2, an animal efficacy study was then performed in a mouse thigh model. Mice were intramuscularly infected with 1.50 × 10^6 c.f.u. of E. coli ATCC 25922. Two hours post infection, brevicidine (30 mg kg^−1) or laterocidine (15 mg kg^−1) was subcutaneously injected at two doses. […] In particular, compound 1 was highly efficacious in mice infected with E. coli and caused a 5 log10 reduction in c.f.u. in the thigh compared to the vehicle control after 24 h (Fig. 4f).
In vivo activities of brevicidine and laterocidine were tested using the mouse thigh infection model. Animal studies were performed by Pharmacology Discovery Services Taiwan Ltd. in general accordance with standard guidelines on animal welfare[38] in an AAALAC-accredited facility. The protocol was reviewed and approved by the Institutional Animal Care and Use Committee. Groups of five female-specific pathogen-free ICR (CD-1) mice weighing 22 ± 2 g (~5 weeks of age) were used. Animals were immunosuppressed with two intraperitoneal injections of cyclophosphamide, the first at 150 mg kg^−1 4 days before infection (day −4) and the second at 100 mg kg^−1 1 day before infection (day −1). On day 0, animals were inoculated intramuscularly (0.1 mL per thigh) in the right thigh with an E. coli ATCC 25922 suspension. Vehicle (10% DMSO, 1% Tween 80, 0.9% NaCl) and antibiotics were then subcutaneously injected 2 and 8 h later. Due to the limited availability of compounds 1–2, only one concentration of 1 (30 mg kg^−1) or 2 (15 mg kg^−1) was used in the present study. Precisely 26 h after inoculation, animals were euthanized by CO2 asphyxiation before their right thigh muscles were harvested. The removed muscles were homogenized in 5 mL of PBS, pH 7.4, with a Polytron homogenizer. Homogenates in the amount of 0.1 mL were used for serial tenfold dilutions and plated onto a nutrient agar medium for colony count (in c.f.u. g^−1) determination. No randomization or blinding was necessary for the animal infection models, and no samples were excluded.

Data set [8] relates to Colistin-resistant E. coli (E. coli ATCC 25922 carrying mcr-1). The data set can be described thus: MIC by broth microdilution. Conditions: MHB, 37 °C, 24 h. In kind it is cell-based, Escherichia coli. On the procedure: as §1
(Dilution methods test growth across graded concentrations, often in twofold steps.)

Data set [9] concerns Candida albicans. In kind it is cell-based. The following applies: 24 h.

A word on the MIC: it is the smallest concentration in the dilution series that meets the test's criterion for growth inhibition. Lower therefore signals a more susceptible organism. By Kd is commonly meant the concentration at which binding is half-saturated.

For `CCC(C)CCC(=O)N[C@H](CC(N)=O)C(=O)N[C@H](Cc1ccc(O)cc1)C(=O)N[C@H](Cc1c[nH]c2ccccc12)C(=O)N[C@H](CCCN)C(=O)N[C@@H](CCCN)C(=O)NCC(=O)N[C@H](CCCN)C(=O)N[C@@H](Cc1c[nH]c2ccccc12)C(=O)N[C@@H]1C(=O)N[C@@H]([C@@H](C)CC)C(=O)NCC(=O)N[C@@H](CO)C(=O)O[C@@H]1C` (some centres unmarked) [Compound 1, brevicidine] ({Hexanoyl(4ξ-Me)}-[dN][dY][dW][dOrn][Orn]G[dOrn]WTIGS; ester 9-C), the MIC in data set [1] was 2 µg/mL (≈ 1.32 µM); in data set [5], >64 µg/mL; in data set [8], 2 µg/mL (≈ 1.32 µM); in data set [9] it was >64 µg/mL. Further, the “binding to LPS (ITC)” value in data set [2] (20 mM HEPES pH 7.0) is given as “strong binding to LPS”. The Kd in data set [2] (ITC, 50 µM LPS in 20 mM HEPES pH 7.0, 100 µM peptide, read-out: dissociation constant Kd for LPS) came out at 6.5 µM. For the same compound, the “resistance development during serial passaging” value in data set [3] is “did not develop resistance”. Also, the “lysis of E. coli cells” value in data set [4] is “completely lysed”. Also, the “lysis of erythrocytes (hemolysis)” value in [6] is “neither caused the lysis of erythrocytes”. The “reduction in c.f.u. in the thigh compared to the vehicle control” value in data set [7] (30 mg kg^−1 subcutaneous at 2 and 8 h post infection, neutropenic ICR mice (n = 5), after 24 h) is recorded as 5 log10. Further, the “viable bacteria in thigh” value in [7] (brevicidine 30 mg kg^−1 twice s.c., five mice, after 26 h, Mann–Whitney P < 0.01) was “reduced number of viable bacteria”.
